In PMC11940229, “How Plant Polyhydroxy Flavonoids Can Hinder the Metabolism of Cytochrome 3A4” (Biomedicines, 2025):
Several values for one entry are separate records, joined by “and”; a condition that tells them apart may be missing. Identical values can stand only once. Like-named read-outs stand apart in the source and are kept apart here. One block for each compound: values may come before it.

Tests used:
CYP3A4 [1] = target: T1, CYP3A4 (Homo sapiens, UniProt P08684); assay: Vivid CYP3A4 Red Screening Kit fluorimetric inhibition assay (BOMR substrate); format: biochemical; conditions: human
T1 construct: purchased ThermoFisher Scientific Cat. no; 2856
Procedure: (§1) Flavone, galangin, resokaempferol, myricetin, and gossypetin were purchased from Indofine Chemical Company, Inc. (Hillsborough, NJ, USA). Kaempferol and scutellarein were obtained from Extrasynthese (Genay, France). […] Fisetin was obtained from Biosynth (Staad, Switzerland). […] Dimethyl sulfoxide (DMSO) was obtained from VWR International (Radnor, PA, USA), and acetonitrile was obtained from Merck KGaA (Darmstadt, Germany). The effect on CYP3A4 catalytic performance was evaluated using the Vivid® CYP3A4 Screening Kit (ThermoFischer Scientific, Waltham, MA, USA), following the indications of the manufacturer. This kit assesses how tested compounds affect the rate of fluorescence increase caused by the breakdown of a resorufin-blocked dye substrate by the human CYP3A4 enzyme. The enzyme promoted the cleavage of substrate at two different bonds, both generating a red highly fluorescent dye, in order to minimize spectral interferences caused by other compounds in the reaction medium. […] This setup helped to further circumvent interference from highly fluorescent compounds like NADPH, which are excited at UV wavelengths. […] The last enzyme and its substrate work as NADPH regenerating system since it catalyzes its formation through NADP^+, added subsequently. […] The fluorescence measurements were performed every 30 s for 30 min in a microplate reader with plate shaking and temperature control, 29 °C (Cytation 5, BIO-TEK, Winooski, VT, USA). The percentage of inhibition was calculated based on the reaction initial rates measured from the constant slope values of the fluorescence–time charts. […] The statistical analysis comprised both comparisons by the Student’s t-test for mean % inhibition and one-way analysis of variance (ANOVA) for the comparison between concentrations on the IC50. […] Differences were significant for p < 0.05.

[2] = target: T2, recombinant human CYP3A4 (Baculosomes) (Homo sapiens, UniProt P08684); assay: as above; format: biochemical; conditions: for IC50: Baculosomes, fluorescence, positive control KTZ, mean ± SEM; for Effect on CYP3A4 activity (in words): up to 50 µmol/L
T2 construct: purchased ThermoFisher Scientific Cat. no; 2856
Procedure: as §1

CYP3A4 [3] = conditions: HLM, cited from earlier work
CYP3A4 [4] = conditions: RLM, HPLC, cited from earlier work
CYP3A4 [5] = conditions: BCS, fluorescence, cited from earlier work
CYP3A4 [6] = conditions: substrate BOMCC, enzyme not given, positive control ERYT, fluorescence; cited from earlier work
CYP3A4 [7] = system: CYP3A4; design: method as in PMID 31756459; conditions: cited from earlier work
[8] = recombinant enzyme, pH 8, CYP3A4 Inhibition (%) (50 µmol/L)
[9] = substrate TST, positive control KTZ, HPLC-UV
[10] = recombinant human CYP3A4 Baculosomes, pH 8, probe Vivid BOMR substrate, 50 µmol/L compound, BOMR substrate, mean ± SEM, negative = activation, read-out: CYP3A4 Inhibition (%) (50 µmol/L)

T1 sequence (P08684 whole entry): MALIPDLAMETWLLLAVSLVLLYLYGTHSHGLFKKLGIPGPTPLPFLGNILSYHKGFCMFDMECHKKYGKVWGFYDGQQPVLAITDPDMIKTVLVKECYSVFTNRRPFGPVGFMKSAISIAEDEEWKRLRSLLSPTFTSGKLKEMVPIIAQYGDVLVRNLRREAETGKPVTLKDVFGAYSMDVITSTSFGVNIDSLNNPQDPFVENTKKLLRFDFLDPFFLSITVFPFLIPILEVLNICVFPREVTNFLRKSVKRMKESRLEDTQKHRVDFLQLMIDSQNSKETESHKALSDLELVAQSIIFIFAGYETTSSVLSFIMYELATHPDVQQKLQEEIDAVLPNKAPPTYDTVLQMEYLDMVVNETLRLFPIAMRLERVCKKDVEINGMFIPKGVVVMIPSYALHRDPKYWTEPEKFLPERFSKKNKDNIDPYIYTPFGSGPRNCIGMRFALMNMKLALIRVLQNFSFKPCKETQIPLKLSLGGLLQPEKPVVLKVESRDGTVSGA
T2 sequence (P08684 whole entry): as above

Structure (SMILES): O=c1cc(-c2ccccc2)oc2cc(O)c(O)c(O)c12 [Baicalein]
- IC50 ([2]; IC50, BOMR substrate): 15 ± 5 µM
- IC50 (CYP3A4 [3]; different substrates, fluorescence): 7.56 to 26.4 µM
- IC50 (CYP3A4 [3]; [9]): 9.6 ± 1.18 µM
- IC50 (CYP3A4 [4]; substrate TST): 12 µM
- IC50 (CYP3A4 [5]; substrate BFC, positive control KTZ): 9.2 µM

Structure (SMILES): O=c1cc(-c2ccccc2)oc2cc(O)cc(O)c12 [Chrysin]
- inhibition at 30 min, 50 µmol/L (CYP3A4 [1]; [8]): 28 ± 17%

Structure (SMILES): O=c1c(O)c(-c2cc(O)c(O)c(O)c2)oc2cc(O)cc(O)c12 [Myricetin]
- inhibition at 30 min, 50 µmol/L (CYP3A4 [1]; [8]): 32 ± 12%

Structure (SMILES): O=c1cc(-c2ccc(O)cc2)oc2cc(O)c(O)c(O)c12 [Scutellarein]
- IC50 ([2]; BOMR substrate, read-out: IC50): 19 µM and 19.1 µM

Structure (SMILES): O=c1c(O)c(-c2ccccc2)oc2cc(O)cc(O)c12 [Galangin]
- inhibition at 30 min, 50 µmol/L (CYP3A4 [1]; [10]): 4 ± 9%

Structure (SMILES): O=c1cc(-c2ccc(O)cc2)oc2cc(O)cc(O)c12 [Apigenin]
- inhibition at 30 min, 50 µmol/L (CYP3A4 [1]; [8]): 23 ± 8%

Structure (SMILES): O=C1C[C@@H](c2ccc(O)cc2)Oc2cc(O)cc(O)c21 [Naringenin]
- inhibition at 30 min, 50 µmol/L (CYP3A4 [1]; [10]): -11 ± 5%
- Effect on CYP3A4 activity (in words) [2]: no inhibitory effect was noticed

Structure (SMILES): O=c1cc(-c2ccccc2)oc2ccccc12 [Flavone]
- inhibition at 30 min, 50 µmol/L (CYP3A4 [1]; [10]): -179 ± 73%
- Effect on CYP3A4 activity (in words) [2]: could act as an activator of the enzyme
- Activation of CYP3A4 (CYP3A4 [7]): 94.65 ± 7.10%

Continued, in another order:

- inhibition at 30 min, 50 µmol/L (CYP3A4 [1]; [8]): ≥ 50%
- IC50 ([2]; IC50, BOMR substrate): 40 µM and 40.1 µM
Structure (SMILES): O=c1c(O)c(-c2ccc(O)c(O)c2)oc2c(O)c(O)cc(O)c12 [Gossypetin]

- inhibition at 30 min, 50 µmol/L (CYP3A4 [1]; [10]): 24 ± 8%
Structure (SMILES): O=c1c(O)c(-c2ccc(O)cc2)oc2cc(O)cc(O)c12 [Kaempferol]

- inhibition at 30 min, 50 µmol/L (CYP3A4 [1]; [10]): ≥ 50%
- IC50 ([2]; BOMR substrate, read-out: IC50): 31 µM and 31.2 µM
Structure (SMILES): O=c1cc(-c2ccc(O)c(O)c2)oc2cc(O)cc(O)c12 [Luteolin]
- IC50 (CYP3A4 [3]; [9]): 4.62 ± 1.26 µM
- IC50 (CYP3A4 [3]; substrate TST, positive control KTZ, RP-HPLC): 6.8 µM
- IC50 (CYP3A4 [6]): 57.1 ± 16.1 µM

- inhibition at 30 min, 50 µmol/L (CYP3A4 [1]; [10]): ≥ 50%
Structure (SMILES): O=c1c(O)c(-c2ccc(O)c(O)c2)oc2cc(O)cc(O)c12 [Quercetin]

- inhibition at 30 min, 50 µmol/L (CYP3A4 [1]; [10]): 38 ± 11%
Structure (SMILES): O=c1c(O)c(-c2ccc(O)cc2O)oc2cc(O)cc(O)c12 [Morin]

- inhibition at 30 min, 50 µmol/L (CYP3A4 [1]; [10]): 30 ± 13%
Structure (SMILES): O=c1c(O)c(-c2ccc(O)c(O)c2)oc2cc(O)ccc12 [Fisetin]

- inhibition at 30 min, 50 µmol/L (CYP3A4 [1]; [10]): 38 ± 7%
Structure (SMILES): O=c1c(O)c(-c2ccc(O)cc2)oc2cc(O)ccc12 [Resokaempferol]

- IC50 ([2]; BOMR substrate, read-out: IC50): 32 µM and 31.5 µM
Structure (SMILES): O=c1c(O)c(-c2ccc(O)cc2)oc2c(O)c(O)cc(O)c12 [Herbacetin]
- IC50 (CYP3A4 [3]; UPLC-MS/MS): < 10 µM
